The results in this text go back to patent US8071645B2, “Systems and methods for treating human inflammatory and proliferative diseases and wounds, with fatty acid metabolism inhibitors and/or glycolytic inhibitors” (The Regents of the University of Colorado, priority 2003, dated 2011).

What all share (assay type): cell-based
In assay [1] the test system is cell-surface Fas on drug sensitive L1210 cells. In words: cell-surface Fas expression on L1210 cells by flow cytometry. The procedure:
(§1) Flow Cytometry. Cells were harvested, counted, and resuspended at 10^6 cells/100 μl of PBS containing 2.5% fetal calf serum in preparation for flow cytometric analysis. Cells were stained for intracellular H202 using 6-carboxy-2′,7′-dichlorodihydrofluorescein diacetate (DCF-DA, Molecular Probes, Eugene, Oreg.). Briefly, cells were incubated at 37° with 1 mM DCF-DA for 20 minutes, washed twice in PBS containing 2.5% fetal calf serum and analyzed flow cytometrically. Mitochondrial membrane potential was assessed using Mitotracker Red (CM-H2XROS, Molecular Probes, Eugene, Oreg.). […] The cells were incubated at 37° for 20 minutes, washed twice in PBS containing 2.5% fetal calf serum and analyzed flow cytometrically. Data were acquired on a Coulter Elite Epics or Excel flow cytometer (Coulter, Hialeah, Fla.) and analyzed with CellQuest software, (Becton Dickinson, San Jose, Calif.). […] Each sample population was classified for cell size (forward scatter) and complexity (side scatter), gated on a population of interest and evaluated using 5,000 cells. […]
(§2) Drug sensitive L1210 cells and drug resistant L1210/DDP cells were cultured with etomoxir for 24 hours (Tx indicates treatment with etomoxir). The level of cell-surface Fas was determined using fluorochrome conjugated anti-Fas antibodies and flow cytometry. The Fas levels are measured relative to a control for staining artifacts. […]

The subject of assay [2] is human leukemia RU937 cells. In words: mitochondrial membrane potential (MitoTracker) of RU937 cells. Particulars: 24 hours of incubation, FIG. 13. The method, then: Flow Cytometry. Cells were harvested, counted, and resuspended at 10^6 cells/100 μl of PBS containing 2.5% fetal calf serum in preparation for flow cytometric analysis. Cells were stained for intracellular H202 using 6-carboxy-2′,7′-dichlorodihydrofluorescein diacetate (DCF-DA, Molecular Probes, Eugene, Oreg.). Briefly, cells were incubated at 37° with 1 mM DCF-DA for 20 minutes, washed twice in PBS containing 2.5% fetal calf serum and analyzed flow cytometrically. Mitochondrial membrane potential was assessed using Mitotracker Red (CM-H2XROS, Molecular Probes, Eugene, Oreg.). The cells were resuspended in PBS containing 2.5% fetal calf serum containing a final concentration of 0.5 micromolar Mitotracker dye. The cells were incubated at 37° for 20 minutes, washed twice in PBS containing 2.5% fetal calf serum and analyzed flow cytometrically. Data were acquired on a Coulter Elite Epics or Excel flow cytometer (Coulter, Hialeah, Fla.) and analyzed with CellQuest software, (Becton Dickinson, San Jose, Calif.). […] Each sample population was classified for cell size (forward scatter) and complexity (side scatter), gated on a population of interest and evaluated using 5,000 cells. […]
The effects of etomoxir on human leukemia RU937 cells was determined. […]

The subject of assay [3] is cell surface UCP2 on A-204 human rhabdomyosarcoma cells. Put plainly: cell surface UCP2 expression on A-204 cells by flow cytometry. The following applies: 24, 48, & 72 hours, FIG. 26. The procedure: Cell Surface Staining. Non-permeabilized cells were stained with antibodies to the cell surface receptors Fas (CD95) (Pharmingen) or with antibodies to uncoupling proteins (anti-UCP2 antibody) (Alpha Diagnostic International). Antibodies for both the isotype control and actual stain were added to the cell suspension, mixed, and then placed on ice for and incubation of 25 minutes in the dark. Subsequently the cells were centrifuged at 300×g for 5 minutes and the supernatant removed. The cells were washed one time with 100 μL of PBS/2.5% FBS and then transferred into flow cytometric tubes containing 500 μL of PBS/2.5% FBS for analysis.
A204 human rhabdomyosarcoma cells were cultured at a concentration of 0.5 to 1 million cells per ml. Cells were untreated or treated with etomoxir at concentrations indicated in FIG. 24 for 24, 48, & 72 hours. Cells were harvested and analyzed by flow cytometry. Dot plots are shown in FIG. 24 as functions of live versus dead cells. […] Five thousand cells were assessed for forward scatter (FS), as a function of cell size, versus side scatter (SS), as a function of cellular granularity. […]
Cells were untreated or treated with etomoxir at the concentration indicated in FIG. 26 at the indicated concentration for 24, 48, & 72 hours. Cells were harvested, stained with fluorochrome conjugated with anti-UCP2 antibody and analyzed by flow cytometry.

Assay [4] relates to cell-surface Fas on drug resistant L1210/DDP cells. In words: cell-surface Fas expression on L1210/DDP cells by flow cytometry. The method, then:
as §1, §2

In another assay the test system is B16F1 melanoma cells. In words: mitochondrial membrane potential (Mitotracker Red) of B16F1 melanoma cells. Particulars: 48 hours, FIG. 20. The procedure: Metabolic Activity Assay. Cells were prepared as previously described. The specific metabolic dye was added and mixed into the cell suspension. This plate was then placed into the 37° incubator for a 20-minute incubation. After incubation, the cells were centrifuged at 300×g for 5 minutes, and the supernatant was removed. The cells were then washed once with PBS/2.5% FBS and transferred into flow cytometric tubes containing 500 μL of PBS/2.5% FBS for analysis
MitoTracker Red CM-H2XROS (Molecular Probes). One vial of MitoTracker Red provides 10 tests and contains 50 μg. This is unstable and can't be stored. Therefore, when each vial was opened, 43 μL of Dimethysulfoxide (DMSO) were added. […]
Geometric Mean Fluorescence. […] Once the stained sample was plotted against the control (isotype or unstained), geometric mean fluorescence values were obtained for both histogram peaks. The stained control sample value was subtracted from sample to identify the actual fluorescence of the stained sample over that of the control.
B16F1 melanoma cells of Example 12 were untreated or treated with etomoxir at the indicated concentrations for 48 hours. Cells were harvested, stained with Mitotracker Red (Molecular Probes) as described in Materials and Methods, and analyzed by flow cytometry. The value of Mitotracker Red was then calculated as described in Materials and Methods. […]

Consider `CCOC(=O)C1(CCCCCCOc2ccc(Cl)cc2)CO1` (stereo not shown) [etomoxir, 2-(6-(4-chlorophenoxy)-hexyl)-oxirane-2-carboxylic acid ethyl ester], for which the “cell surface Fas” value in assay [1] (cultured with etomoxir for 24 hours, FIG. 7) is “significant increases”; in assay [4] (L1210/DDP, cultured with etomoxir for 24 hours, FIG. 7), “significant increases”. For the same compound, in assay [1] (etomoxir with methotrexate, FIG. 8), the “methotrexate-induced increases in Fas” value is on record as “increases”. The “levels of mitochondrial membrane potential (MitoTracker)” value in assay [2] is given as “increased”. Moreover, in assay [3], the “cell surface UCP2 expression in the live cells” value was “time dependent “fold” increases”. Also, the “cell surface Fas on methotrexate-treated cells” value in assay [4] (L1210 DDP, etomoxir with methotrexate, FIG. 8) is “promotes increases”. The “mitochondrial membrane potential as measured by Mitotracker Red” value in the assay on B16F1 melanoma cells was “increase”.
